Patent publication US11304988B2, “Inhibiting tumor cell migration by inhibition of kinesin light chain 1, variant 1 (KLC1C)” (Northwestern University, priority 2018, dated 2022)
Entries after “also recorded” stand apart in the source; their conditions may differ.

Experiments:
[1] = tested on: B16F10 melanoma cells; assay: Transwell filter migration of tumor cells toward serum-containing medium (B16F10); type: cell-based, mouse; conditions: 100 nM peptide, 12 hours, 8 μM pore size Transwell
Description: (§1) FIG. 8. […] 1×10^4 A375 human melanoma cells or 1×10^4 B16F10 melanoma cells were resuspended in serum-free medium and placed in the upper chamber of Transwell filters ([…]) and allowed to migrate in response to serum-containing medium in the bottom chamber in the presence of 100 nM Tat-Scr, Tat-KLC1c or no additives. The total number of tumor cells in the bottom well 12 hours later was enumerated. Data are mean±S.D. for four replicates of each sample.

[2] = tested on: PMN; assay: croton oil acute dermatitis of ear skin, PMN transmigration; type: in vivo, mouse; conditions: i.v. to achieve 0.1 μM in blood, one hour before croton oil; ear skin examined six hours later
Description: FIG. 5. TAT-KLC1c blocks TEM in vivo. Mice received TAT-Scr or TAT-KLC1c i.v. at a concentration to achieve 0.1 μM in blood. One hour later, croton oil was applied to mouse ear skin to induce acute dermatitis. Six hours later mice were sacrificed and ear skin examined in whole mount by confocal microscopy. Representative images are shown. In mice receiving Tat-Scr, a mean of 70% of PMN exited the vessels, while in mice receiving Tat-KLC1c, transmigration was decreased to 12%.

[3] = tested on: B16F10 melanoma cells; assay: lung metastatic colony formation after tail vein injection of B16F10 cells; type: in vivo, mouse
Description: Age- and sex-matched C57Bl/6 mice were injected with Tat-Scr (Scr) or Tat-KLC1c (KLC1c) 1 hr before and 18 hr after injection of 10^6 B16F10 melanoma cells via tail vein. 14 days later lungs were inflated with formalin, and metastases counted. (A) Representative gross photos of lungs from mice that received Tat-Scr (top) and Tat-KLC1c (bottom). Arrows point to some of the metastases. (B) Graphical representation of results. Dots are values for individual mice. (TNTC)=too numerous to count. Lines show mean±S.D., p=0.00204 by ANOVA not including the TNTC data.
C57Bl/6 mice received KLC1c or scrambled peptide 1 hour prior to receiving carboxyfluorescein (CFSE)-labeled B16F10 melanoma cells via tail vein. They were sacrificed six hours later so that data would reflect the effects on extravasation per se rather than survival or growth (Ref. B10; herein incorporated by reference in its entirety). Immediately prior to sacrifice a fluorescent anti-PECAM antibody was injected i.v. to stain vasculature. […] In a separate experiment, age- and sex-matched C57Bl/6 mice syngeneic to the tumor were randomized to receive Tat-Scr or Tat-KLC1c parenterally at a concentration calculated to achieve 0.1 μM in vivo 1 h. before and 18 h. after receiving 1×10^6 syngeneic B16F10 melanoma cells in 100 μl via tail vein. […]

[4] = tested on: A375 human melanoma cells; assay: Transwell filter migration of tumor cells toward serum-containing medium (A375); type: cell-based; conditions: 100 nM peptide, 12 hours, 8 μM pore size Transwell
Description: as §1

[5] = tested on: A375 human melanoma cells; assay: tumor cell TEM assay, A375 melanoma cells across EC (HUVEC) monolayers; type: cell-based; conditions: for melanoma cell TEM in vitro (in words): human melanoma cells across human EC monolayer; for melanoma cell transmigration across endothelial cell monolayers, prostaglandin receptor inhibitors: HUVEC pretreated 1 hour then washed, A375 cells, inhibitor used at 10× its IC50
Description: FIG. 7. Tat-KLC1c peptide blocks tumor cell TEM. A375 human melanoma cells were allowed to transmigrate for 2 hours across EC monolayers pre-incubated (then washed extensively) with Tat-KLC1c or Tat-Scr. The 50% block in TEM is representative of at least 6 independent experiments.
FIG. 10. Platelets modestly increase melanoma cell migration through an LBRC-dependent mechanism. The tumor cell TEM assay was carried out in the presence or absence of human platelets, which were added to the tumor cells at the time of peptide addition and immediately prior to addition to the endothelial cell monolayer. Transmigration proceeded for 2 hours.
FIG. 17. […] HUVEC monolayers were pretreated with 100 nM Tat peptides or the indicated doses of PF-04418948 (EP2 inhibitor) or AAT008 (EP4 antagonist) for 1 hour then washed exten-sively before adding A375 cells. Transmigration proceeded for 2 hours.
FIG. 18. Optimal concentrations of Tat-KLC1c peptide and EP4 antagonist are not additive. Transmigration assays as in FIG. 16 with 100 μM Tat-peptides, 100 nM AAT-008, or both. Mean±S.D. of 6 replicates for each condition. * p<0.0004 vs. Scr; NS vs each other.
(§2) Tumor cells that transmigrate using the LBRC do so without destroying the endothelial cell monolayer. […] The Tat-KLC1c peptide has no effect on the ability of tumor cells to move per se (FIG. 8), nor on tumor cell viability or growth (FIG. 9).

[6] = tested on: neutrophils; assay: intravital confocal microscopy of neutrophil transmigration in IL-1β-inflamed cremaster muscle; type: in vivo; conditions: anesthetized mouse; for neutrophil extravasation (cumulative transmigration): postcapillary venules, response to IL-1β, after injection of peptide
Source text: FIG. 4. TAT-KLC1c blocks TEM in vivo. In the inflamed cremaster muscle of an anesthetized mouse, fluorescent neutrophils were observed by intravital spinning disc confocal microscopy to transmigrate steadily from postcapillary venules in response to IL-1β.

[7] = tested on: Human umbilical vein endothelial cells; assay: in vitro transendothelial migration (TEM) of human monocytes across endothelial cell monolayers; type: cell-based; conditions: endothelial cells incubated 30 minutes with 0.01 μM or 0.1 μM peptide, washed, one hour with human monocytes; compared to untreated
Description: FIG. 3. Blocking Kinesin Light Chain 1c function via TAT-KLC1c peptide inhibits transmigration. Human umbilical vein endothelial cells. Endothelial cells were incubated for 30 minutes with either 0 μM (untreated), 0.01 μM, or 0.1 μM TAT-KLC1c peptide (or scrambled TAT-peptide) at 37° C., then washed prior to a one hour incubation with human monocytes. The cells were then washed, fixed, and the percentage of cells transmigrated (% TEM) was quantified. […] Data shown are mean±SEM for 3 experiments. * p<0.01 compared to untreated.
(§3) FIG. 16. […] Data are mean±SD of 6 replicates. *p<0.005 vs. Scr.
as §2

[8] = tested on: B16F10 melanoma cells; assay: melanoma cell extravasation in lung in vivo after tail vein injection; parameters: species or system mouse; conditions: for visualized tumor cells that had transmigrated: C57Bl/6 mice, peptide 1 hour prior to CFSE-labeled B16F10 via tail vein, sacrificed six hours later
Description: FIG. 11. Visualizing melanoma cell extravasation in vivo. Single XY plane from confocal image of CFSE-labeled B16F10 cells in Tat-Scr treated mouse lung 6 hr. after i.v. injection of 10^6 tumor cells. Two tumor cells (arrows) have migrated out of vasculature while another one (arrowhead) remains inside the vessel.
FIG. 12. […] Quantification of block by Tat-KLC1c (Mean±S.D) * p<0.01.
C57Bl/6 mice received KLC1c or scrambled peptide 1 hour prior to receiving carboxyfluorescein (CFSE)-labeled B16F10 melanoma cells via tail vein. They were sacrificed six hours later so that data would reflect the effects on extravasation per se rather than survival or growth (Ref. B10; herein incorporated by reference in its entirety). Immediately prior to sacrifice a fluorescent anti-PECAM antibody was injected i.v. to stain vasculature. Lungs were inflated with 4% paraformaldehyde (PFA) and fixed overnight in PFA, then cryopreserved in sucrose. 100 μm thick frozen sections were cut and examined by spinning disc confocal microscopy with images taken every 1 μm of specimen depth. 30% of visualized tumor cells had transmigrated in the mice receiving scrambled peptide, whereas only ˜9% had transmigrated in mice receiving Tat-KLC1c peptide—a 70% reduction (FIGS. 11,12). […] In a separate experiment, age- and sex-matched C57Bl/6 mice syngeneic to the tumor were randomized to receive Tat-Scr or Tat-KLC1c parenterally at a concentration calculated to achieve 0.1 μM in vivo 1 h. before and 18 h. after receiving 1×10^6 syngeneic B16F10 melanoma cells in 100 μl via tail vein. Lung metastases were enumerated 14 days later under a dissecting microscope. The Tat-KLC1c group had over 90% fewer (FIG. 13, p=0.00204). […] Even though Tat-KLC1c blocks about ⅓ (in vitro) to ⅔ (in vivo) of melanoma extravasation events, the number of metastatic colonies that grow out are disproportionately lower.

[9] = tested on: B16F10 melanoma cells; assay: growth of B16F10 melanoma cells in culture over two weeks; type: cell-based, mouse; conditions: 100 nM peptide, two-week period
Description: FIG. 9. […] Melanoma cells were plated at a density of 1×10^5/ml on 80 mm plates with 100 nM Tat-Scr or Tat-KLC1c. Cells were trypsinized and counted on the indicated days, diluted and 4×10^6 viable cells re-plated in fresh peptide. Total cells in the culture are shown.

[10] = tested on: A375M melanoma cells; assay: A375M transendothelial migration assay; type: cell-based, human; conditions: for lowest concentration with significant effects on tumor cell transmigration / melanoma / tumor cell transmigration with free radical scavengers and anti-oxidants (in words): A375M; for melanoma / tumor cell transmigration with free radical scavengers and anti-oxidants (in words): indicated concentrations, vs. Scr; for inhibition of melanoma cell TEM compared with Tat-KLC1c peptide: at 10 mM, vs optimal concentration of Tat-KLC1c peptide
Description: as §3
FIG. 19. […] A375M transendothelial migration assays were carried out in the presence of Tat-peptides or the indicated concentrations of Trolox or N-acetylcysteine. Data are mean±SD of ≥3 replicates for each condition. *p<0.01 for all inhibitors vs. Scr.

| Molecule | tumor cell migration, total number of tumor cells in the bottom well [1] | mean PMN exited the vessels (transmigration) [2] [%] | tumor cell migration, total number of tumor cells in the bottom well [4] | melanoma cell TEM in vitro (in words) [5] | neutrophil extravasation (cumulative transmigration) [6] | percentage of cells transmigrated (% TEM) [7] | visualized tumor cells that had transmigrated ([8]; lung) [%] | lowest concentration with significant effects on tumor cell transmigration [10] [µM] | melanoma / tumor cell transmigration with free radical scavengers and anti-oxidants (in words) [10] | inhibition of melanoma cell TEM compared with Tat-KLC1c peptide [10] | other results |
| --- | --- | --- | --- | --- | --- | --- | --- | --- | --- | --- | --- |
| Tat-KLC1c: 11-amino acid basic region from HIV Tat protein, glycine tripeptide linker, C-terminal decapeptide of KLC1c (MRKMKLGLVN); SEQ ID NO: 8 (YGRKKRRQRRRGGGMRKMKLGLVN) | no direct effect | 12 | no direct effect | significantly blocks | markedly inhibited | significantly decreased TEM | ~9 | – | – | – | fewer lung metastases than Tat-Scr group ([3]; 0.1 μM in vivo, 1 h before and 18 h after 1×10^6 B16F10 cells via tail vein, 14 days later): over 90%; metastatic colony formation (in words) ([3]; C57Bl/6 mice, B16F10, 14 days): significantly blocked the establishment of metastatic colonies; also recorded: prevents metastatic colony formation; block in TEM ([5]; EC monolayers pre-incubated with peptide then washed, 2 hours, vs Tat-Scr, representative of at least 6 experiments): 50%; reduction of tumor cell TEM ([5]; FIG. 10 experiment, without platelets, 2 hours, vs. scr): 33%; additional TEM in the presence of platelets ([5]; human platelets added to tumor cells, 2 hours): blocked; also recorded: down to the same level; melanoma extravasation events blocked (in vitro) ([5]; in vitro): about ⅓; time after injection until cumulative transmigration began to plateau ([6]; IL-1β-inflamed cremaster): ≤ 10 min; melanoma extravasation (in words) ([8]; FIG. 12 quantification): blocks melanoma extravasation; reduction of transmigrated tumor cells ([8]; Tat-KLC1c vs scrambled peptide, six hours, lung): 70%; melanoma extravasation events blocked (in vivo) ([8]; in vivo): ⅔; tumor cell viability or growth (total cells in the culture) [9]: no effect; also recorded: does not affect growth |
| CC(=O)N[C@@H](CS)C(=O)O [N-acetylcysteine] | – | – | – | – | – | – | – | 100 | reduces tumor cell transmigration in a dose-dependent manner; also recorded: inhibit melanoma transmigration | as effectively as the optimal concentration of Tat-KLC1c peptide | – |
| Tat-Scr: negative control peptide contains the same ten amino acids in a random order (scrambled, Scr); SEQ ID NO: 9 (YGRKKRRQRRRGGGGKLNKMVMLR) [reference compound] | no significant differences | 70 | no significant differences | no effect | no effect | not | 30 | – | – | – | – |
| C[C@H](NC(=O)c1cc(Cl)cnc1Oc1cccc(F)c1)c1ccc(C(=O)O)cc1 [AAT-008, reference compound] | – | – | – | – | – | – | – | – | – | – | melanoma cell transmigration across endothelial cell monolayers, prostaglandin receptor inhibitors ([5]; 2 hours): block melanoma cell transmigration; melanoma cell transmigration across endothelial cell monolayers, prostaglandin receptor inhibitors ([5]; 2 hours, listed as AAT008): blocks melanoma transmigration; block to melanoma cell transmigration compared with Tat-KLC1c ([5]; vs Tat-KLC1c at its optimal concentration): as effective as using Tat-KLC1c at its optimal concentration |
| Cc1c(C)c2c(c(C)c1O)CCC(C)(C(=O)O)O2 (stereo not shown) [Trolox, 6-hydroxy-2,5,7,8-tetramethylchroman-2-carboxylic acid] | – | – | – | – | – | – | – | 100 | reduces tumor cell transmigration in a dose-dependent manner; also recorded: inhibit melanoma transmigration | as effectively as the optimal concentration of Tat-KLC1c peptide | – |
